Test [1] has as its system Pancreatic CSCs. The test can be described thus: Matrigel invasion assay. The test is classed as cell-based, human. Here is the method: (A and B) Pancreatic CSCs were treated with rottlerin (0-1 μM) for 24 h. The expression of Zeb-1 and Slug was measured by the qRT-PCR and normalized to GAPDH. […] (C) In vitro Matrigel invasion assay. CSCs were plated onto the Matrigel-coated membrane in the top chamber of the transwell and treated with rottlerin (0-2 μM) for 48 h. Cells invaded to the lower chamber were fixed with methanol, stained with crystal violet and photo micrographed.
(A) Pancreatic CSCs were treated with EGCG (0-60 μM) for 48 h. At the end of incubation period, the expression of Snail, ZEB1 and Slug was measured by q-RT-PCR. […] (B) Transwell migration assay. Pancreatic CSCs were plated in the top chamber of the transwell and treated with EGCG (0-60 μM) for 24 h. Cells migrated to the lower chambered were fixed with methanol, stained with crystal violet and counted. […] (C) Matrigel invasion assay. CSCs were plated onto the Matrigel-coated membrane in the top chamber of the transwell and treated with EGCG (0-60 μM) for 48 h. Cells invaded to the lower chambered were fixed with methanol, stained with crystal violet and counted. […] (D) Effects of EGCG on TCF-1/LEF activity. Pancreatic CSCs were transduced with TCF/LEF responsive GFP/firefly luciferase viral particles (pGreen Fire1-Gli with EF1, System Biosciences). Transduced CSCs were treated with EGCG (0-60) for 48 h and the GFP fluorescence was measured.
FIG. 42A and FIG. 42B show graphs showing quercetin synergizes with EGCG to inhibit self-renewal capacity, invasion, migration, and TCF/LEF and Gli transcriptional activities in pancreatic CSCs. (A) Effects of EGCG and quercetin on spheroid and colony formation. Upper Panel, uercetin synergizes with EGCG to inhibit spheroid's cell viability. CSCs were seeded in suspension and treated with EGCG (0-60 μM) with or without quercetin (20 μM) for 7 days. At the end of incubation period, all the spheroids were collected and resuspended. Cell viability was measured by trypan blue assay. […] Lower panel, uercetin synergizes with EGCG to inhibit colony formation. Pancreatic CSCs were seeded in soft agar and treated with various doses of EGCG (0-60 μM) with or without quercetin (20 μM) and incubated at […] for 21 days. At the end of incubation period, colonies were counted. […] (B) Effects of EGCG and quercetin on invasion and migration. Upper panel, Matrigel invasion assay. […] Cells invaded to the lower chambered were fixed with methanol, stained with crystal violet and counted. […] Cells migrated to the lower chambered were fixed with methanol, stained with crystal violet and counted. […] Apoptosis was measured by TUNEL assay. […] Transduced CSCs were treated with EGCG (40 μM) with or without quercetin (20 μM) for 48 hrs and the luciferase activity was measured.

Test [2] deals with Pancreatic CSCs. The test is described as follows: cell viability, trypan blue, Vi-CELL analyzer. The following applies: 3 days. The class given is cell-based, human. As to the method:
Pancreatic CSCs were treated with resveratrol (0-20 μM), curcumin (0-20 μM), honokiol (0-20 μM) and diallyl trisulphide (0-20 μM) for 3 days, and cell viability was measured by staining with trypan blue using Vi-CELL analyzer (Beckman Counter).
Pancreatic CSCs were treated with sulforaphane (0-20 μM), rottlerin (0-2 μM), EGCG (0-60 μM) and embelin (0-5 μM) for 3 days, and cell viability was measured by staining with trypan blue using Vi-CELL analyzer (Beckman Counter).
(A) Pancreatic CSCs were treated with SAHA (3 and 5 μM) and 5-Aza-dc (2 and 4 μM) and cell viability was measured at 48 h by staining with trypan blue using Vi-CELL analyzer (Beckman Counter). (B) Pancreatic CSCs were untreated (a) or treated with SAHA (b) or 5-Aza-dC (c) for 48 h, and apoptosis was measured by staining with annexin-PI using Accuri Flow Cytometer. (C) Caspase-3/7 activity was measured in pancreatic CSCs treated with SAHA (0.5 and 2 μM) or 5-Aza-dC (1 and 3 μM) for 25 h.
Pancreatic CSCs were treated with resveratrol (0-20 μM), curcumin (0-20 μM), honokiol (0-20 μM), and diallyl trisulphide (0-20 μM) for 3 days and cell viability was measured by staining with trypan blue using Vi-CELL analyzer. The results of those studies are illustrated in FIG. 27.
Pancreatic CSCs were treated with sulforaphane (0-20 μM), rottlerin (0-2 μM), EGCG (0-60 μM), and embelin (0-5 μM) for 3 days and cell viability was measured by staining with trypan blue using Vi-CELL analyzer. The results of those studies are illustrated in FIG. 28.
Pancreatic CSCs were treated with SAHA […] Vorinostat (3 and 5 μM) and 5-Aza-2′-deoxycytidine (5-Aza-dC, 2 and 4 μM) and cell viability was measured at 48 hours by staining with trypan blue using Vi-CELL analyzer. The results of those studies are illustrated in FIG. 31A.

Setting [3] is: EGCG 0-60 μM with or without quercetin 20 μM, 48 hrs.

For `O=C(O[C@@H]1Cc2c(O)cc(O)cc2O[C@@H]1c1cc(O)c(O)c(O)c1)c1cc(O)c(O)c(O)c1` [EGCG, epigallocatechin gallate], the invasion entry was “inhibited cell viability in spheroids, colony formation, migration and invasion by CSCs in a dose-dependent manner” in test [1] (setting [3]); “inhibited” in test [1] (EGCG 0-60 μM, 48 h). Moreover, the cell viability entry in test [2] is reported as “inhibit cell viability”.

Turning to `O=c1c(O)c(-c2ccc(O)c(O)c2)oc2cc(O)cc(O)c12` [quercetin], in test [1] (setting [3]), the invasion result was “effective alone”.

As for `CC(=O)c1c(O)c(C)c(O)c(Cc2c(O)c3c(c(C(=O)/C=C/c4ccccc4)c2O)OC(C)(C)C=C3)c1O` [rottlerin], the in vitro invasion entry in test [1] (rottlerin 0-2 μM, 48 h, Matrigel) was “inhibited the in vitro invasion”. In addition, the cell viability result in test [2] was “inhibit cell viability”.

In the case of `C[S+]([O-])CCCCN=C=S` (stereo not shown) [sulforaphane], the cell viability result in test [2] is given as “inhibit cell viability”.
